Assay results: article PMC5963095 (International Journal for Parasitology: Drugs and Drug …, 2017)

Experiments:
[1] = target: T1, PfEXP1 (expressed in Pichia pastoris) (Plasmodium falciparum, UniProt Q8IIF0); experiment: glutathione S-transferase assay, absorbance at […] nm; type: biochemical
T1 sequence (Q8IIF0 23-162): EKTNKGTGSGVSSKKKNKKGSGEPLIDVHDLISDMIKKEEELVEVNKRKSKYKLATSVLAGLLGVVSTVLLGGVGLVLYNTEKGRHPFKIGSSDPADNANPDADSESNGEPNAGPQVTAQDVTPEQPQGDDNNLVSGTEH

[2] = target: T2, PfEXP1 (Plasmodium falciparum, UniProt Q8IIF0); experiment: as above; type: biochemical
T2 sequence (Q8IIF0 23-162): T1 sequence (Q8IIF0 23-162)

SMILES	IC50 [1] [nM]	IC50 [2] [nM]
CCN(CC)CCCC(C)Nc1ccnc2cc(Cl)ccc12 (stereo not drawn) [chloroquine]	11.1 ± 4.12	19.3 ± 2.67
C=C[C@H]1C[N@@]2CC[C@H]1C[C@H]2[C@H](O)c1ccnc2ccc(OC)cc12 [quinine]	179 ± 52.1	–
